Patent publication US11523980B2, “Use of a peptide for the treatment of epiderm” (Sederma, priority 2018, dated 2022)
Marks after values point to notes of the source that are not given here. Residues, ends and D or L forms follow the SMILES beside them. *: point of attachment. Palmitoyl = CCCCCCCCCCCCCCCC(=O)*

Legend:
[1] = tested on: transglutaminase-5 gene; experiment: Transglutaminase-5 gene expression (qRT-PCR) in KHN; format: cell-based, human; details: 72 hours of contact
Description: (§1) Finally, the influence of the peptide according to the invention on the activity of transglutaminases and on the expression of the transglutaminase-5 gene was evaluated.
With regard to transglutaminase-5, a qRT-PCR was performed after 72 hours of contact between the KHN and the peptide according to the invention.
(§2) A quantification of the number of cells was carried out in parallel for the 4 tests described in this part, so as to reduce the results to the number of cells.

[2] = tested on: hyaluronic acid secretion in NHK; experiment: Hyaluronic acid secretion by keratinocytes (ELISA); format: cell-based, human; details: for Hyaluronic acid % of variatio/control: ELISA
Description: The moisturizing aspect was evaluated by the assay of hyaluronic acid produced by keratinocytes by an ELISA method.
as §2

[3] = tested on: Lnc-RNA ANCR; experiment: Lnc-RNA ANCR expression (qRT-PCR) in confluent keratinocytes; format: cell-based, human; details: 24 h
Description: In this test confluent keratinocytes were contacted with the peptide according to the invention for 24 hours, then the cells were rinsed, ground and their RNAs were extracted, converted into DNA and then analyzed by qRT-PCR.
A study of the variances and a Student's t-test were carried out in order to judge the significance of the results (n=4 for each condition).

[4] = tested on: NHKs exposed to UVB; experiment: Secretome of pro-inflammatory mediators by NHKs exposed to UVB (ELISA); format: cell-based, human; details: NHK + UVB
Description: To test the active, keratinocytes were cultured under mild stress conditions (application of UVB radiation) so as to mimic experimental micro-inflammation of the skin. In this situation a significant decrease in their secretome of inflammation mediators will be interpreted in the sense of a repairing and protective action of the skin.
NHKs in culture and at confluence were brought into contact with the peptide according to the invention (or its solvent) for 24 hours in a medium allowing their survival, then the mats were irradiated with UVB in a physiological buffer and placed back into contact with products to be tested for 24 hours. At the end of this incubation, the culture media were assayed by ELISA in order to know the quantities of pro-inflammatory mediators produced by these cells in response to irradiation. The results were compared with solvent control +/−irradiation. A cellular respiration test was conducted to evaluate the number of cells and standardize the results.
(§3) A study of the variances and a Student's t test were carried out in order to judge the significance of the results.

[5] = tested on: confluent keratinocytes; experiment: Intracellular calcium mobilization in confluent keratinocytes (fluorescent calcium probe); format: cell-based, human; details: 6 or 15 ppm; visible after about 30 minutes of contact
Description: Confluent keratinocytes were loaded with a specific calcium probe. This molecule becomes very fluorescent in the presence of intracellular free calcium. The appearance of fluorescence under the microscope was monitored. The cells, once loaded, were rinsed and then received the peptide according to the invention at 6 or 15 ppm or a positive control (bradykinin).
A study of the variances and a t test of Student were carried out in order to judge the significance of the results (n=3 for each condition).

[6] = tested on: α-crystallin protein in reconstructed skin epidermis; experiment: α-crystallin immunohistology on reconstructed skins; format: cell-based, human; details: for α-cristallin % of variation/control: reconstructed skin epidermis, 24 hours then following 18 days
Description: Normal human fibroblasts were seeded in a matrix. A few days after keratinocytes were deposited on this equivalent dermis to form a uniform layer of cells. At this stage the whole was passed to an air-liquid interface (emersion) so as to form a pluristratified epidermis. After 21 days (approximately), a mature skin equivalent was obtained (with an epidermis comprising the stratum corneum).
On the eve of the emergence phase, the layer of confluent human keratinocytes of these skins received the peptide according to the invention for 24 hours and then for the following 18 days (period of formation of the epidermis). Cryo-sections (7 μm) were made and the α-crystallin was labeled with fluorescent antibodies (immunohistology). The fluorescence was analyzed in photos, an equivalent surface was analyzed for all the photographs (n=51-59). Student's t test was performed.

[7] = tested on: normal human keratinocytes (NHK); experiment: LC-MS/MS study of proteins in NHK culture (7 days); format: cell-based; details: 4 ppm
Source text: The same culture protocol as for the DNA-Array (1.1/above) was used but with a longer culture time (7 days), the protein productions taking longer to be detected with this LC-MS/MS method. The NHK culture medium (n=3) was changed every 3 days. At the end of this contact, the cells were lysed so as to extract the proteins and to analyze them in the form of crushed material by a method associating the action of a protease on the crushed material, the separation of the fragments by coupled liquid chromatography to mass spectrometry, then the identification and concentration of pre-existing proteins according to the nature and quantity of fragments obtained (LC-MS/MS). To conduct LC-MS/MS analysis on equivalent amounts of protein, the protein concentration was measured on the crushed material.
as §3

[8] = tested on: filaggrin gene; experiment: qRT-PCR analysis of filaggrin gene expression; format: cell-based, human
Source text: The genes of loricrin, filaggrin and filaggrin 2, three proteins involved in the building of the corneocyte or the moisturisation of the Stratum corneum, were statistically better expressed than in the solvent control (p<0.01). […] 3.66 times compared to control (p<0.01).

[9] = tested on: transglutaminases; experiment: Transglutaminase activity (fluorescent dansylcadaverine) in NHK; format: cell-based, human; details: contact up to 21 days
Description: as §1
For this, confluent NHKs were brought into contact with the peptide according to the invention up to 21 days. Transglutaminase activity was assessed using a protocol using fluorescent dansylcadaverine which is bound to Stratum corneum proteins by these enzymes. An analysis of the fluorescence was performed, and the results compared to the solvent control.
as §2

[10] = tested on: KLK5 (kallikrein 5); experiment: KLK5 fluorescence immunohistology on abdominal skin explant; format: cell-based, human; details: cream containing 6 ppm applied daily, 6 days, vs placebo cream
Source text: (§4) Desmoglein was searched on sections of abdominal skin (person) who had received a cream containing 6 ppm of the peptide according to the invention or the placebo cream. After 6 days (cream applied daily), the skins were frozen and sectioned to look for desmoglein using antibodies against this protein (fluorescence immunohistology). Photos were captured using a fluorescence microscope and the images analyzed using suitable software. The results were compared to those of the placebo cream.
The same sections as those used for desmoglein, as well as the same method (fluorescence immunohistology) were used to analyze and quantify the effect of the peptide according to the invention on this desquamation marker.

[11] = tested on: normal human keratinocytes (NHK); experiment: Immunocytochemistry of differentiation markers and ceramides in NHK; format: cell-based; details: 2 ppm, 7 days
Description: Confluent NHKs (n=3) were cultured as previously for 7 days in the presence or absence (control) of the peptide according to the invention, then immunocytochemistry markings were carried out using antibodies directed against proteins characteristic of the maturation of the epidermis: involucrin, loricrin and filaggrin, or of moisturizing: filaggrin, as well as ceramides (structuring elements of the Stratum corneum).
as §2

[12] = tested on: normal human keratinocytes (NHK); experiment: DNA-Array, mRNA expression in confluent keratinocytes; format: cell-based; details: 4 ppm
Description: The following in vitro tests were performed on epidermal cells: normal human keratinocytes (NHK) or on skin explant or on reconstructed skin. The peptide according to the invention was tested, in solution in an inert solvent (ethanol), at recommended concentrations of use on the skin. The peptide according to the invention was contacted for 6 or 24 h with confluent KHN (n=3). Then the KHN mats were rinsed and the cells were crushed to extract their mRNAs. These mRNAs are then converted into small DNA sequences which are analyzed after deposition on DNA chips and amplification by a method similar to qRT-PCR (Real-Time Quantitative Reverse Transcription Polymerase Chain Reaction). The mRNA variations due to the peptide are compared to the control case (peptide solvent).

[13] = tested on: desmoglein; experiment: Desmoglein fluorescence immunohistology on abdominal skin explant; format: cell-based, human; details: cream containing 6 ppm applied daily, 6 days, vs placebo cream
Source text: as §4

CCCCCCCCCCCCCCCC(=O)NC(CCCCN)C(=O)NC(C(=O)NC(Cc1ccccc1)C(=O)NC(CCCCN)C(=O)O)C(C)O (stereo not shown) [peptide according to the invention, palmitoyl-lysyl-threonyl-phenylalanyl-lysine] (Palmitoyl-KTFK-OH; configuration not given here)
Transglutaminase-5 Gene expression % of variation/control ([1]; 4 ppm): +133%; p < 0.01
Transglutaminase-5 Gene expression % of variation/control ([1]; 6 ppm): +798%; p < 0.01
Toxic effects ([2]; 4 and 6 ppm): No toxic effects were noted.
Hyaluronic acid % of variatio/control ([2]; 4 ppm): +40%; p < 0.01
Hyaluronic acid % of variatio/control ([2]; 6 ppm): +91%; p < 0.01
ANCR ratio % of variation/control ([3]; 4 ppm): −27%; p < 0.05
ANCR ratio % of variation/control ([3]; 6 ppm): −34%; p < 0.01
IL-1α % of variation/control ([4]; 2 ppm): −15%
IL-1β % of variation/control ([4]; 2 ppm): −14%
IL-6 % of variation/control ([4]; 2 ppm): −12%
PGE2 % of variation/control ([4]; 2 ppm): −31%
TNF-α % of variation/control ([4]; 2 ppm): −10%
IL-1α % of variation/control ([4]; 4 ppm): −38%
IL-1β % of variation/control ([4]; 4 ppm): −43%
IL-6 % of variation/control ([4]; 4 ppm): −70%
PGE2 % of variation/control ([4]; 4 ppm): −59%
TNF-α % of variation/control ([4]; 4 ppm): −56%
IL-1α % of variation/control ([4]; 6 ppm): −46%
IL-1β % of variation/control ([4]; 6 ppm): −54%
IL-6 % of variation/control ([4]; 6 ppm): −84%
PGE2 % of variation/control ([4]; 6 ppm): −74%
TNF-α % of variation/control ([4]; 6 ppm): −71%
Intracellular calcium mobilization (visual, fluorescence microscope) [5]: induces an intracellular calcium mobilization
Toxic effects ([6]; 4 and 6 ppm, reconstructed skin): No toxic effects were noted.
α-cristallin % of variation/control ([6]; 4 ppm): +61%; p < 0.01
α-cristallin % of variation/control ([6]; 6 ppm): +164%; p < 0.01
Toxic effects [7]: No toxic effects were noted.
Variation with respect to the control of protein Filaggrin ([7]; LC-MS/MS): ×4.16
Variation with respect to the control of protein Keratin 10 ([7]; LC-MS/MS): ×1.46
Variation with respect to the control of protein NICE-1 ([7]; LC-MS/MS): ×3.42
Variation with respect to the control of protein SPRR1A ([7]; LC-MS/MS): ×1.55
Variation with respect to the control of protein α-cristallin ([7]; LC-MS/MS): ×2.19
Increase of filaggrin gene expression compared to control (qRT-PCR) ([8]; 4 ppm): 2.87 times
Increase of filaggrin gene expression compared to control (qRT-PCR) ([8]; 6 ppm): 3.66 times
Transglutaminase Intra-KHN activity % of variation/control ([9]; 4 ppm): +45%; p < 0.01
Transglutaminase Intra-KHN activity % of variation/control ([9]; 6 ppm): +107%; p < 0.01
KLK5 % of variation/control [10]: +258%; p < 0.01
Toxic effects [11]: No toxic effects were noted.
Ceramides % of variation/control ([11]; immunofluorescence): +334%;
Filaggrin % of variation/control ([11]; immunofluorescence): +554%;
Involucrin % of variation/control ([11]; immunofluorescence): +60%;
Loricrin % of variation/control ([11]; immunofluorescence): +261%;
Toxic effects ([12]; 6 or 24 h contact): No toxic effects were noted.
Increase in production of mRNA coding for TRPC6 compared with the solvent control ([12]; 6 h): 6.05 ×
Variation with respect to the control of expression of gene coding for Filaggrin ([12]; 6 hours contact): ×2.32 *
Variation with respect to the control of expression of gene coding for Filaggrin 2 ([12]; 6 hours contact): ×2.42 *
Variation with respect to the control of expression of gene coding for Loricrin ([12]; 6 hours contact): ×2.97 *
Variation with respect to the control of expression of gene coding for LCE2D ([12]; 24 hours contact): ×1.84 **
Variation with respect to the control of expression of gene coding for LCE3B ([12]; 24 hours contact): ×2.13 **
Variation with respect to the control of expression of gene coding for LCE3C ([12]; 24 hours contact): ×3.25 **
Variation with respect to the control of expression of gene coding for LCE3D ([12]; 24 hours contact): ×2.06 **
Variation with respect to the control of expression of gene coding for LCE3E ([12]; 24 hours contact): ×2.33 **
Variation with respect to the control of expression of gene coding for SPRR2B ([12]; 24 hours contact): ×2.13 **
Variation with respect to the control of expression of gene coding for SPRR2C ([12]; 24 hours contact): ×1.58 **
Desmogleine % of variation/control [13]: +24%; p < 0.01
